Assay results: patent US6693072B2, “Elastase inhibitors” (Aventis Pharmaceuticals Inc., priority 1994, dated 2004)

Assays:
[1] = target: T1, human neutrophil elastase (Homo sapiens, UniProt P08246); test: Human neutrophil elastase in vitro inhibition assay, N-MeOSuc-Ala-Ala-Pro-Val-p-nitroanilide substrate; assay type: biochemical; details: for human neutrophil elastase, using N-MeOSucAlaAlaProVal-pNA as substrate; enzyme purified from human sputum
T1 construct: Enzyme is purified from human sputum, although recently it has become commercially available; from tissue; host or cells: human sputum
T1 sequence (P08246 30-247 limits assumed): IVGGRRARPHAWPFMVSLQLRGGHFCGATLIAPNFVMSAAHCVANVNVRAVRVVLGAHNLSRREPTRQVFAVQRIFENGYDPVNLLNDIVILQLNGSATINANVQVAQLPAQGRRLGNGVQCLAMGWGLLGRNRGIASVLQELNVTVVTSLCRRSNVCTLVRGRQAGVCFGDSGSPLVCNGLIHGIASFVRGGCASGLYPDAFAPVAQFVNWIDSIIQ
Experimental: Human neutrophil elastase is assayed in vitro using N-MeOSuc-[…]-nitroanilide, available commercially, as substrate. The assay buffer, pH and assay techniques are similar to those described by Mehdi, et al., Biochemical and Biophysical Research Communications, 166, 595 (1990). Enzyme is purified from human sputum, although recently it has become commercially available. Kinetic characterization of immediate inhibitors is by means of the Dixon plot, whereas the characterization of slow- and/or tight-binding inhibitors used data analysis techniques reviewed by Williams and Morrison. The synthesis and analytical use of a highly sensitive and convenient substrate of elastase is described in J. Bieth, B. Spiess and C. G. Wermuth, Biochemical Medicine, 11 (1974)350-375.

[2] = target: human neutrophil elastase (human) (UniProt P08246); test: in vitro enzyme inhibition kinetics of human neutrophil elastase, substrate N-MeOSuc-Ala-Ala-Pro-Val-p-nitroanilide

Compound	Ki [1] [nM]	Ki [2] [nM]
CC(C)C(NC(=O)C1CCCCN1C(=O)[C@@H](NC(=O)c1ccc(C(=O)N2CCOCC2)cc1)C(C)C)C(=O)C(F)(F)C(F)(F)F (mixture of isomers) [MDL 105,759, N-[4-(4-morpholinylcarbonyl)benzoyl]-L-valyl-N′-[3,3,4,4,4-pentafluoro-1-(1-methylethyl)-2-oxobutyl]-D,L-2-pipecolinamide]	150	–
CC(C)C(NC(=O)[C@H]1CCN1C(=O)[C@@H](NC(=O)c1ccc(C(=O)N2CCOCC2)cc1)C(C)C)C(=O)C(F)(F)C(F)(F)F (stereo partly drawn) [MDL 104,238, N-[4-(4-morpholinylcarbonyl)benzoyl]-L-valyl-N′-[3,3,4,4,4-pentafluoro-1-(1-methylethyl)-2-oxobutyl]-L-2-azetamide]	34	–
CC(C)C(NC(=O)[C@H]1C[C@@H](OCc2ccccc2)CN1C(=O)[C@@H](NC(=O)c1ccc(C(=O)N2CCOCC2)cc1)C(C)C)C(=O)C(F)(F)C(F)(F)F (stereo partly drawn) [MDL 104,865, N-[4-(4-morpholinylcarbonyl)benzoyl]-L-valyl-N′-[3,3,4,4,4-pentafluoro-1-(1-methylethyl)-2-oxobutyl]-trans-4-benzyloxyprolinamide]	20	–
N-[4-(4-morpholinylcarbonyl)benzoyl]-L-valyl-N'-[3,3,4,4,4-pentafluoro-1-(1-methylethyl)-2-oxobutyl]-trans-4-acetoxyprolinamide (peptide)	–	40
